Measurements taken from PubChem BioAssay (NCI).
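Test compounds were applied to cells in 96-well plates for 48 hours at 5 doses. TGI: total growth inhibition.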

Legend:
Assay in all cases: NCI anticancer screen, dose series, 48 h
MALME-3M melanoma = test system: MALME-3M melanoma
HCC-2998 colon = test system: HCC-2998 colon
OVCAR-3 ovarian = test system: OVCAR-3 ovarian
SK-MEL-2 melanoma = test system: SK-MEL-2 melanoma
BT-549 breast = test system: BT-549 breast
SNB-19 CNS = test system: SNB-19 CNS
IGROV1 ovarian = test system: IGROV1 ovarian
DU-145 prostate = test system: DU-145 prostate
NCI-H460 lung = test system: NCI-H460 lung
HCT-15 colon = test system: HCT-15 colon
SW-620 colon = test system: SW-620 colon
ACHN renal = test system: ACHN renal
786-0 renal = test system: 786-0 renal
MDA-MB-435 = test system: MDA-MB-435
OVCAR-5 ovarian = test system: OVCAR-5 ovarian
RPMI-8226 leukemia = test system: RPMI-8226 leukemia
NCI-H226 lung = test system: NCI-H226 lung
SR leukemia = test system: SR leukemia
KM12 colon = test system: KM12 colon
MDA-MB-231 breast = test system: MDA-MB-231 breast
COLO 205 colon = test system: COLO 205 colon
SK-MEL-28 melanoma = test system: SK-MEL-28 melanoma
HCT-116 colon = test system: HCT-116 colon
LOX IMVI melanoma = test system: LOX IMVI melanoma
OVCAR-4 ovarian = test system: OVCAR-4 ovarian
CCRF-CEM leukemia = test system: CCRF-CEM leukemia
MDA-N = test system: MDA-N
MOLT-4 leukemia = test system: MOLT-4 leukemia
T-47D breast = test system: T-47D breast
HL-60(TB) leukemia = test system: HL-60(TB) leukemia
MCF7 breast = test system: MCF7 breast
HS 578T breast = test system: HS 578T breast
NCI-H522 lung = test system: NCI-H522 lung
CAKI-1 renal = test system: CAKI-1 renal
SNB-75 CNS = test system: SNB-75 CNS
HOP-62 NSCLC = test system: HOP-62 NSCLC
TK-10 renal = test system: TK-10 renal
RXF 393 renal = test system: RXF 393 renal
EKVX NSCLC = test system: EKVX NSCLC
HT29 colon = test system: HT29 colon
SK-MEL-5 melanoma = test system: SK-MEL-5 melanoma
UACC-257 melanoma = test system: UACC-257 melanoma
PC-3 prostate = test system: PC-3 prostate
UACC-62 melanoma = test system: UACC-62 melanoma
NCI/ADR-RES ovarian = test system: NCI/ADR-RES ovarian
M14 melanoma = test system: M14 melanoma
A549 NSCLC = test system: A549 NSCLC
SF-295 CNS = test system: SF-295 CNS
HOP-92 NSCLC = test system: HOP-92 NSCLC
SK-OV-3 ovarian = test system: SK-OV-3 ovarian
U251 CNS = test system: U251 CNS
SN12C renal = test system: SN12C renal
SF-539 CNS = test system: SF-539 CNS
UO-31 renal = test system: UO-31 renal
A498 renal = test system: A498 renal
OVCAR-8 ovarian = test system: OVCAR-8 ovarian
NCI-H23 lung = test system: NCI-H23 lung
SF-268 CNS = test system: SF-268 CNS

CCCCCCCCCCCCCCCCNc1nc(=O)n(C2OC(C)C(O)C2O)cc1F (stereo not drawn)
TGI (MALME-3M melanoma): 40.7 µM
TGI (HCC-2998 colon): 31 µM
TGI (OVCAR-3 ovarian): 34.8 µM
TGI (SK-MEL-2 melanoma): 38.9 µM
TGI (BT-549 breast): 35.1 µM
TGI (SNB-19 CNS): 39.7 µM
TGI (IGROV1 ovarian): 37.6 µM
TGI (DU-145 prostate): 36 µM
TGI (NCI-H460 lung): 33.9 µM
TGI (HCT-15 colon): 29.1 µM
TGI (SW-620 colon): 46.8 µM
TGI (ACHN renal): 29 µM
TGI (786-0 renal): 35.6 µM
TGI (MDA-MB-435): 30.5 µM
TGI (OVCAR-5 ovarian): 36.7 µM
TGI (RPMI-8226 leukemia): 33.9 µM
TGI (NCI-H226 lung): 40.6 µM
TGI (SR leukemia): > 100 µM
TGI (KM12 colon): 36.3 µM
TGI (MDA-MB-231 breast): 42 µM
TGI (COLO 205 colon): 58.7 µM
TGI (SK-MEL-28 melanoma): 37.5 µM
TGI (HCT-116 colon): 36.7 µM
TGI (LOX IMVI melanoma): 55.5 µM
TGI (OVCAR-4 ovarian): 50.8 µM
TGI (CCRF-CEM leukemia): 42.6 µM
TGI (MDA-N): 39.3 µM
TGI (MOLT-4 leukemia): 62.2 µM
TGI (T-47D breast): 43.8 µM
TGI (HL-60(TB) leukemia): 75.1 µM
TGI (MCF7 breast): 33 µM
TGI (HS 578T breast): 56.3 µM
TGI (NCI-H522 lung): 39 µM
TGI (CAKI-1 renal): 41.8 µM
TGI (SNB-75 CNS): 33.1 µM
TGI (HOP-62 NSCLC): 33.8 µM
TGI (TK-10 renal): 30.6 µM
TGI (RXF 393 renal): 44.8 µM
TGI (EKVX NSCLC): 35.3 µM
TGI (HT29 colon): 31.2 µM
TGI (SK-MEL-5 melanoma): 43.4 µM
TGI (UACC-257 melanoma): 35.5 µM
TGI (PC-3 prostate): 28.1 µM
TGI (UACC-62 melanoma): 29 µM
TGI (NCI/ADR-RES ovarian): 43.8 µM
TGI (M14 melanoma): 33.5 µM
TGI (A549 NSCLC): 48 µM
TGI (SF-295 CNS): 43 µM
TGI (HOP-92 NSCLC): 45.7 µM
TGI (SK-OV-3 ovarian): 37.4 µM
TGI (U251 CNS): 54.4 µM
TGI (SN12C renal): 40.6 µM
TGI (SF-539 CNS): 33.5 µM
TGI (UO-31 renal): 27.2 µM
TGI (A498 renal): 39.1 µM
TGI (OVCAR-8 ovarian): 52.6 µM
TGI (NCI-H23 lung): 32.7 µM
TGI (SF-268 CNS): 44.5 µM
